Values of other authors as cited in patent US11478425B2, “Extended release compositions comprising pyridostigmine” (priority 2017, dated 2022).

For `CN(C)C(=O)Oc1ccc[n+](C)c1` [pyridostigmine], the bioavailability (NDA #020414) is listed as 10-20%, the elimination half-life (oral) is listed as 3 to 5 h and the “time-to-maximum peak plasma concentration” value (oral) is listed as 1 to 2 h.
